“Also recorded” adds a separate entry of the source.
Columns and labels:
Assay type in all cases: cell-based
[1] = test system: NIH3T3 cells transformed by an activated melanoma c-H-ras oncogene; assay: Growth inhibition of transformed NIH3T3 cells (cell counting); conditions: 500 µg/mℓ SF-1346, 37°C, Dulbecco-modified Eagle's medium, 5% bovine serum, initial 1 × 10⁴ cell/mℓ
Protocol: (§1) NIH3T3 cells transformed by an activated melanoma c-H-ras oncogene and normal NIH3T3 cells were incubated at 37°C each in a Dulbecco-modified Eagle's medium containing 5% (v/v) of bovine serum.
(§2) Each medium was adjusted to have an initial cell density of 1 × 10⁴ cell/mℓ and contain SF-1346 at a concentration of 200 µg/mℓ or 500 µg/mℓ. The cells therein were counted with the lapse of time from the first day to the fifth day and from the fourth day to the seventh day of the incubation.

[2] = test system: normal NIH3T3 cells; assay: Growth inhibition of normal NIH3T3 cells (cell counting); conditions: 500 µg/mℓ SF-1346; same culture conditions
Protocol: as §1, §2
(§3) SF-1346 were added to the culture medium of NIH3T3 cells transformed with activated c-Ki-ras, N-ras, ret, hst and raf oncogenes in the same manner as in Example 1 so as to give a final concentration of 500 µg/mℓ.

[3] = test system: NIH3T3 cells transformed with activated c-Ki-ras, N-ras, ret, hst and raf oncogenes; assay: Growth inhibition of NIH3T3 cells transformed with other oncogenes; conditions: final concentration 500 µg/mℓ
Protocol: as §3

[4] = test system: SRY1 cells which had been obtained by cancerizing rat fibroblast 3Y1 cells through transfection with an src oncogene; assay: Growth inhibition of SRY1 cells; conditions: src-transfected rat fibroblast 3Y1 cells; Example 2
[5] = test system: transformed NIH3T3 cells; assay: Acquirement of revertants from transformed NIH3T3 cells (morphology, inverted microscope); conditions: 500 µg/mℓ; sixth day of incubation; inverted microscope 100 × magnification
Protocol: (§4) Cell incubation was carried out under the same conditions as those described in Example 1 except that SF-1346 was added to the culture medium so as to give a final concentration of 500 µg/mℓ. […] Namely, these surviving revertants formed flat foci.
Then, the revertants were isolated by selecting cell clusters forming flat foci by […]. After repeating this procedure several times, the desired revertants were isolated.

[6] = test system: normal NIH3T3 cells; assay: Morphology of normal NIH3T3 cells incubated with the compound; conditions: 500 µg/mℓ; sixth day of incubation
Protocol: as §4

[7] = test system: PSN-1 cells derived from human pancreatic cancer; assay: Inhibition of the growth of PSN-1 cells and acquirement of revertants
Protocol: PSN-1 cells were incubated at 37°C in RPMI 1640 media each containing 10% (v/v) fetal calf serum and SF-1346 at a concentration of 500 µg/mℓ or 200 µg/mℓ. An initial cell density was adjusted to 1 × 10⁴ cells/mℓ. The cells were counted with the lapse of time from the fourth day to the eighth day after the initiation of the incubation.

For `N[C@@H](Cc1ccc(O)cn1)C(=O)O` [SF-1346, L-β-(5-hydroxy-2-pyridyl)alanine], the “growth of the transformed NIH3T3 cells” value [1] was “inhibit the growth; also recorded: selectively inhibits the growth”, the “growth of the normal NIH3T3 cells” value [2] was “did not inhibit; also recorded: does not inhibit the growth” and the “growth of the transformed NIH3T3 cells” value [3] was “inhibited the growth”. The “growth of SRY1 cells” value [4] was “completely inhibited the growth”, the “morphological observation of transformed cells (revertant formation)” value [5] was “the transformed cells partially died and the selectively surviving cells were morphologically similar to the normal NIH3T3 cells” and the “morphological change of normal cells” value [6] was “no morphological change was observed”. The “cells converted into flat revertants” value ([7]; 200 µg/mℓ, PSN-1 cells) was 85%, the cells killed ([7]; 200 µg/mℓ, PSN-1 cells) was 15% and the “growth of the cancer cells” value ([7]; 200 µg/mℓ, PSN-1 cells) was “completely inhibiting the growth”. The “killing of PSN-1 cells” value ([7]; 500 µg/mℓ, RPMI 1640, 10% fetal calf serum, counted fourth to eighth day) was “completely killed”.

Source: patent publication EP0313094A2, “Anticancer agent and reagent for obtaining revertants” (MEIJI SEIKA KAISHA LTD., priority 1987, dated 1989)
